Measurements published in PubChem BioAssay AID1963828 (Molecular Pharmacology Branch, DTP, NCI, 2024).

System: 991263-137-R1-J2-PDC complex spheroid viability
Assay: Anticancer human tumor 991263-137-R1-J2-PDC patient-derived colon adenocarcinoma cell line growth inhibition [POLQ]
Settings: for IC50: curve of first compound; for viability, T/C: stronger effect = lower value
Method in brief: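 Growth inhibition in 3D: complex spheroids (tumor PDC, HUVEC, MSC) treated with POLQ inhibitor combinations; where Cmax unknown, highest tested concentration 10 microM, except SN-38 at 1 microM.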

[1] = second compound 0.0316 µM, first compound 0.0316 µM
[2] = second compound 0.0316 µM, first compound 0.1 µM
[3] = second compound 0.0316 µM, first compound 0.316 µM
[4] = second compound 0.0316 µM, first compound 1 µM
[5] = second compound 0.0316 µM, first compound 3.16 µM
[6] = second compound 0.0316 µM, first compound 10 µM
[7] = second compound 0.1 µM, first compound 0.0316 µM
[8] = second compound 0.1 µM, first compound 0.1 µM
[9] = second compound 0.1 µM, first compound 0.316 µM
[10] = second compound 0.1 µM, first compound 1 µM
[11] = second compound 0.1 µM, first compound 3.16 µM
[12] = second compound 0.1 µM, first compound 10 µM
[13] = second compound 0.316 µM, first compound 0.0316 µM
[14] = second compound 0.316 µM, first compound 0.1 µM
[15] = second compound 0.316 µM, first compound 0.316 µM
[16] = second compound 0.316 µM, first compound 1 µM
[17] = second compound 0.316 µM, first compound 3.16 µM
[18] = second compound 0.316 µM, first compound 10 µM
[19] = second compound 1 µM, first compound 0.0316 µM
[20] = second compound 1 µM, first compound 0.1 µM
[21] = second compound 1 µM, first compound 0.316 µM
[22] = second compound 1 µM, first compound 1 µM
[23] = second compound 1 µM, first compound 3.16 µM
[24] = second compound 1 µM, first compound 10 µM
[25] = second compound 3.16 µM, first compound 0.0316 µM
[26] = second compound 3.16 µM, first compound 0.1 µM
[27] = second compound 3.16 µM, first compound 0.316 µM
[28] = second compound 3.16 µM, first compound 1 µM
[29] = second compound 3.16 µM, first compound 3.16 µM
[30] = second compound 3.16 µM, first compound 10 µM
[31] = second compound 10 µM, first compound 0.0316 µM
[32] = second compound 10 µM, first compound 0.1 µM
[33] = second compound 10 µM, first compound 0.316 µM
[34] = second compound 10 µM, first compound 1 µM
[35] = second compound 10 µM, first compound 3.16 µM
[36] = second compound 10 µM, first compound 10 µM
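Also: spheroids exposed to compounds for 7 days before readout.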
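For viability, T/C in this document: 100% = DMSO vehicle control viability.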

SMILES: C=CC(=O)N1CCN(c2nc(=O)n(-c3c(C)ccnc3C(C)C)c3nc(-c4c(O)cccc4F)c(F)cc23)C(C)C1 (centres undefined) + Nc1ccc(C#CCN(C(=O)Cc2ncc(C(F)(F)F)cc2C(F)(F)F)c2ccc(F)cc2)nn1
- IC50 (second compound 0.0316 µM): > 10 µM
- IC50 (second compound 0.1 µM): > 10 µM
- IC50 (second compound 0.316 µM): > 10 µM
- IC50 (second compound 1 µM): > 10 µM
- IC50 (second compound 3.16 µM): > 10 µM
- IC50 (second compound 10 µM): > 10 µM
- viability, T/C [1]: 108%
- viability, T/C [2]: 100%
- viability, T/C [3]: 99.3%
- viability, T/C [4]: 96.5%
- viability, T/C [5]: 109%
- viability, T/C [6]: 116%
- viability, T/C [7]: 102%
- viability, T/C [8]: 104%
- viability, T/C [9]: 114%
- viability, T/C [10]: 98%
- viability, T/C [11]: 117%
- viability, T/C [12]: 105%
- viability, T/C [13]: 104%
- viability, T/C [14]: 105%
- viability, T/C [15]: 102%
- viability, T/C [16]: 96.7%
- viability, T/C [17]: 113%
- viability, T/C [18]: 106%
- viability, T/C [19]: 110%
- viability, T/C [20]: 105%
- viability, T/C [21]: 107%
- viability, T/C [22]: 97.7%
- viability, T/C [23]: 107%
- viability, T/C [24]: 100%
- viability, T/C [25]: 94.5%
- viability, T/C [26]: 85.6%
- viability, T/C [27]: 102%
- viability, T/C [28]: 102%
- viability, T/C [29]: 106%
- viability, T/C [30]: 110%
- viability, T/C [31]: 96.6%
- viability, T/C [32]: 107%
- viability, T/C [33]: 90.6%
- viability, T/C [34]: 117%
- viability, T/C [35]: 99.8%
- viability, T/C [36]: 100%

SMILES: CC(C)n1c(=O)n(C)c2cnc3cc(F)c(-c4ccc(OCCCN5CCCCC5)nc4)cc3c21 + Nc1ccc(C#CCN(C(=O)Cc2ncc(C(F)(F)F)cc2C(F)(F)F)c2ccc(F)cc2)nn1
- IC50 (second compound 0.0316 µM): > 10 µM
- IC50 (second compound 0.1 µM): > 10 µM
- IC50 (second compound 0.316 µM): > 10 µM
- IC50 (second compound 1 µM): > 10 µM
- IC50 (second compound 3.16 µM): > 10 µM
- IC50 (second compound 10 µM): > 10 µM
- viability, T/C [1]: 96.6%
- viability, T/C [2]: 109%
- viability, T/C [3]: 111%
- viability, T/C [4]: 121%
- viability, T/C [5]: 98.8%
- viability, T/C [6]: 111%
- viability, T/C [7]: 103%
- viability, T/C [8]: 99.8%
- viability, T/C [9]: 102%
- viability, T/C [10]: 121%
- viability, T/C [11]: 101%
- viability, T/C [12]: 85.8%
- viability, T/C [13]: 104%
- viability, T/C [14]: 99.4%
- viability, T/C [15]: 101%
- viability, T/C [16]: 110%
- viability, T/C [17]: 103%
- viability, T/C [18]: 111%
- viability, T/C [19]: 105%
- viability, T/C [20]: 100%
- viability, T/C [21]: 105%
- viability, T/C [22]: 104%
- viability, T/C [23]: 95.5%
- viability, T/C [24]: 90.1%
- viability, T/C [25]: 90.7%
- viability, T/C [26]: 97.7%
- viability, T/C [27]: 106%
- viability, T/C [28]: 118%
- viability, T/C [29]: 111%
- viability, T/C [30]: 105%
- viability, T/C [31]: 99%
- viability, T/C [32]: 96.2%
- viability, T/C [33]: 112%
- viability, T/C [34]: 94.5%
- viability, T/C [35]: 93.5%
- viability, T/C [36]: 101%
